Reference: patent publication US20260274804A1, “PHENOLIC COMPOUNDS BLOCKING Nav 1.7 AND/OR Nav 1.8, PROCESSES FOR THE PREPARATION THEREOF, COMPOSITIONS, USES, METHODS OF TREATMENT USING SAME AND KITS” (Eurofarma Laboratórios S.A., priority 2023, published 2026)

Experiments:
[1] = biological target: T1, human sodium channels Nav 1.7 (Homo sapiens, UniProt Q15858); experiment: Automated whole-cell voltage-clamp (ScreenPatch 384P) on CHO cells stably expressing Nav 1.7; assay type: cell-based; conditions: inactivation step -40 mV 8 s, test pulse 0 mV, room temperature, exposure at least five minutes, read-out: Nav1.7 IC50
T1 construct: expressed in transfected cells
Procedure: (§1) Biological assays were performed on Chinese hamster ovary (CHO) cells that express human sodium channels Nav 1.8 or Nav 1.7 in a stable manner.
(§2) The experimental protocol voltage-clamp using the whole cell configuration was established on the automated ScreenPatch® 384P platform (SP384PE, Nanion Technologies, Livingston, NJ) and the results were recorded with a Nanion 384-well Patch Clamp chip (NPC) (Nanion Technologies, Livingston, NJ).
(§3) Formula I compounds were diluted in eight concentrations in the extracellular solution composed of physiological saline solution, buffered with HEPES (mM): NaCl, 137; KCl, 4; CaCl2, 3.8; MgCl2, 1; HEPES, 10; Glucose, 10; pH 7.4. The […], 50; CsF, 90; MgCl2, 5; EGTA, 5; HEPES, 10; pH 7.2. The duration of exposure of each compound with cells expressing Nav 1.7 or Nav 1.8 was at least five minutes, and the assays were performed at room temperature.
(§4) The measurements of the sodium currents of Nav 1.8 and Nav 1.7 were obtained using the voltage protocol described below.
(§5) A holding voltage of −100 mV was established followed by an inactivation voltage step at −40 mV for 8 seconds, followed by a step of −100 mV for 20 ms, followed by a 20 ms step for 10 mV for Nav 1.8 or 0 mV for Nav 1.7 (TP1A) before returning to the holding voltage of −100 mV.
(§6) The protocol was repeated at a frequency of 0.05 Hz and the amplitude of the current was quantified throughout the recording of the TP1A phase. The variation in the peak current amplitude was evaluated according to the Formula described below, after exposing the cells expressing the channels to each concentration of the different compounds:
(§7) [formula] • wherein […] and ITP1A,molecule represent the peaks of sodium current input into TP1A before exposure to the compound and in the presence of the compound, respectively.
(§8) The decrease in the peak current amplitude, after the exposure of the cells to the compounds, was used to calculate the percentage of relative blockage of the channels in relation to the positive control according to the Formula below:
(§9) [formula] • where % V and % CP represent the means of the values of current inhibition with a vehicle (DMSO) and positive controls, respectively. The sodium currents of the positive control were considered as 100%:
(§10) [formula] • wherein [Test] represents the concentration of the molecule evaluated, IC50 is the concentration of the compound that generates half of the maximum inhibition, N is Hill's coefficient, and % Blockage' is the percentage of sodium channel current (Nav 1.8 and Nav 1.7) inhibited at each concentration of the molecule evaluated. Data were obtained by nonlinear regression (nonlinear least squares) with XLfit for Excel (Microsoft, Redmond, WA).
(§11) The compounds were tested in at least one assay to obtain the value of CI50. For compounds that were tested in two or more assays, the results are described as the means of the CI50 values.

[2] = biological target: T2, human sodium channels Nav 1.8 (Homo sapiens, UniProt Q9Y5Y9); experiment: Automated whole-cell voltage-clamp (ScreenPatch 384P) on CHO cells stably expressing Nav 1.8; assay type: cell-based; conditions: inactivation step -40 mV 8 s, test pulse 10 mV, room temperature, exposure at least five minutes, read-out: Nav1.8 IC50
T2 construct: expressed in transfected cells
Procedure: as §1, §2, §3, §4, §5, §6, §7, §8, §9, §10, §11

T1 sequence (Q15858 whole entry): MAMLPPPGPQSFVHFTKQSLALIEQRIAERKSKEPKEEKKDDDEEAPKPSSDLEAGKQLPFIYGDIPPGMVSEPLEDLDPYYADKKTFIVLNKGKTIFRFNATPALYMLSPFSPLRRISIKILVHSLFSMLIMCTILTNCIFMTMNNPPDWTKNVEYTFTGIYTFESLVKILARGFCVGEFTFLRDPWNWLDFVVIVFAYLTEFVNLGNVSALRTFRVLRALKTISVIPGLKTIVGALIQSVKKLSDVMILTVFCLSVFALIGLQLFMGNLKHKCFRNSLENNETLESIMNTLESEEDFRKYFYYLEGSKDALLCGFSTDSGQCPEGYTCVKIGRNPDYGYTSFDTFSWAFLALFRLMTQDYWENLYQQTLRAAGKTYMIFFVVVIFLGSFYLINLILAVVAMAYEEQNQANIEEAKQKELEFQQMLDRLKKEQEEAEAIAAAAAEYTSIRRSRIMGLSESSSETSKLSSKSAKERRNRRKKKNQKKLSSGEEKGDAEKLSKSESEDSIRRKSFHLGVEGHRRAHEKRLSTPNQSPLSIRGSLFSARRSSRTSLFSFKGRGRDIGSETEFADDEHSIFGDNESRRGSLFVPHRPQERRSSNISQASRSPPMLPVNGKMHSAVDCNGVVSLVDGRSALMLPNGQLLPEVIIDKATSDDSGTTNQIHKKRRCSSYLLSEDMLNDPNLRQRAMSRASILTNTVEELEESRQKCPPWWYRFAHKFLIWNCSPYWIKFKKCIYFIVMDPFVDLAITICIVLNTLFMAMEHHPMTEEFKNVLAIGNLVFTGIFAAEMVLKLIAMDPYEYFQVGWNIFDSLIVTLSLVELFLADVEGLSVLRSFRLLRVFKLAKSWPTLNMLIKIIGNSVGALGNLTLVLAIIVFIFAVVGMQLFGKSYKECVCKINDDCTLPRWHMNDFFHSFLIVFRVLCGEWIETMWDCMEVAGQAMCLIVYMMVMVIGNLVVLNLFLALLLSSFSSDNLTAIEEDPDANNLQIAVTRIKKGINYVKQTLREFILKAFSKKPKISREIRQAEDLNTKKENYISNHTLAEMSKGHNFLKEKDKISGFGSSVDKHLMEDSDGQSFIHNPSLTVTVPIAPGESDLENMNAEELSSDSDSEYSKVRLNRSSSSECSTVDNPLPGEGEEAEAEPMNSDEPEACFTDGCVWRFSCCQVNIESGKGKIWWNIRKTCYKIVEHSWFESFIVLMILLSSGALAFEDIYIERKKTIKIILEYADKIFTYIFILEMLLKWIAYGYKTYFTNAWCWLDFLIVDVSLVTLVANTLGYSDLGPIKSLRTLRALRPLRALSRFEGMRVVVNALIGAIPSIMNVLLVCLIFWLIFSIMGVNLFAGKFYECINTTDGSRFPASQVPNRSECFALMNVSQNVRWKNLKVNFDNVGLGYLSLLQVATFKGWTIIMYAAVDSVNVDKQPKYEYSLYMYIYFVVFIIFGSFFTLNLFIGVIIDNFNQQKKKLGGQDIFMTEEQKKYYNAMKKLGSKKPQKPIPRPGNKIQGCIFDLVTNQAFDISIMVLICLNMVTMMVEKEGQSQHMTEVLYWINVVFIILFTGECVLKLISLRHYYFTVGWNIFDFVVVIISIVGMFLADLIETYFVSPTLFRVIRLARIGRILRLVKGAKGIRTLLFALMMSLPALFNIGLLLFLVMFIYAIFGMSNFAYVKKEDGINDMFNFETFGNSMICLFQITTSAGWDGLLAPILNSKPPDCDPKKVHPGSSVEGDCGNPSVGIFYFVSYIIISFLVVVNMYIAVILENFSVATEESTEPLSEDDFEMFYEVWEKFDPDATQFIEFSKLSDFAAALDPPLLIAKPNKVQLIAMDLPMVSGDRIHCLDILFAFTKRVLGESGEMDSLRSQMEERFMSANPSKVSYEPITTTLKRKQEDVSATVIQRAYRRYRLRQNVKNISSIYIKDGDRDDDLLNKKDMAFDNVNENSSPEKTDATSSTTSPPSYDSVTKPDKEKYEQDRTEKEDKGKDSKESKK
T2 sequence (Q9Y5Y9 whole entry): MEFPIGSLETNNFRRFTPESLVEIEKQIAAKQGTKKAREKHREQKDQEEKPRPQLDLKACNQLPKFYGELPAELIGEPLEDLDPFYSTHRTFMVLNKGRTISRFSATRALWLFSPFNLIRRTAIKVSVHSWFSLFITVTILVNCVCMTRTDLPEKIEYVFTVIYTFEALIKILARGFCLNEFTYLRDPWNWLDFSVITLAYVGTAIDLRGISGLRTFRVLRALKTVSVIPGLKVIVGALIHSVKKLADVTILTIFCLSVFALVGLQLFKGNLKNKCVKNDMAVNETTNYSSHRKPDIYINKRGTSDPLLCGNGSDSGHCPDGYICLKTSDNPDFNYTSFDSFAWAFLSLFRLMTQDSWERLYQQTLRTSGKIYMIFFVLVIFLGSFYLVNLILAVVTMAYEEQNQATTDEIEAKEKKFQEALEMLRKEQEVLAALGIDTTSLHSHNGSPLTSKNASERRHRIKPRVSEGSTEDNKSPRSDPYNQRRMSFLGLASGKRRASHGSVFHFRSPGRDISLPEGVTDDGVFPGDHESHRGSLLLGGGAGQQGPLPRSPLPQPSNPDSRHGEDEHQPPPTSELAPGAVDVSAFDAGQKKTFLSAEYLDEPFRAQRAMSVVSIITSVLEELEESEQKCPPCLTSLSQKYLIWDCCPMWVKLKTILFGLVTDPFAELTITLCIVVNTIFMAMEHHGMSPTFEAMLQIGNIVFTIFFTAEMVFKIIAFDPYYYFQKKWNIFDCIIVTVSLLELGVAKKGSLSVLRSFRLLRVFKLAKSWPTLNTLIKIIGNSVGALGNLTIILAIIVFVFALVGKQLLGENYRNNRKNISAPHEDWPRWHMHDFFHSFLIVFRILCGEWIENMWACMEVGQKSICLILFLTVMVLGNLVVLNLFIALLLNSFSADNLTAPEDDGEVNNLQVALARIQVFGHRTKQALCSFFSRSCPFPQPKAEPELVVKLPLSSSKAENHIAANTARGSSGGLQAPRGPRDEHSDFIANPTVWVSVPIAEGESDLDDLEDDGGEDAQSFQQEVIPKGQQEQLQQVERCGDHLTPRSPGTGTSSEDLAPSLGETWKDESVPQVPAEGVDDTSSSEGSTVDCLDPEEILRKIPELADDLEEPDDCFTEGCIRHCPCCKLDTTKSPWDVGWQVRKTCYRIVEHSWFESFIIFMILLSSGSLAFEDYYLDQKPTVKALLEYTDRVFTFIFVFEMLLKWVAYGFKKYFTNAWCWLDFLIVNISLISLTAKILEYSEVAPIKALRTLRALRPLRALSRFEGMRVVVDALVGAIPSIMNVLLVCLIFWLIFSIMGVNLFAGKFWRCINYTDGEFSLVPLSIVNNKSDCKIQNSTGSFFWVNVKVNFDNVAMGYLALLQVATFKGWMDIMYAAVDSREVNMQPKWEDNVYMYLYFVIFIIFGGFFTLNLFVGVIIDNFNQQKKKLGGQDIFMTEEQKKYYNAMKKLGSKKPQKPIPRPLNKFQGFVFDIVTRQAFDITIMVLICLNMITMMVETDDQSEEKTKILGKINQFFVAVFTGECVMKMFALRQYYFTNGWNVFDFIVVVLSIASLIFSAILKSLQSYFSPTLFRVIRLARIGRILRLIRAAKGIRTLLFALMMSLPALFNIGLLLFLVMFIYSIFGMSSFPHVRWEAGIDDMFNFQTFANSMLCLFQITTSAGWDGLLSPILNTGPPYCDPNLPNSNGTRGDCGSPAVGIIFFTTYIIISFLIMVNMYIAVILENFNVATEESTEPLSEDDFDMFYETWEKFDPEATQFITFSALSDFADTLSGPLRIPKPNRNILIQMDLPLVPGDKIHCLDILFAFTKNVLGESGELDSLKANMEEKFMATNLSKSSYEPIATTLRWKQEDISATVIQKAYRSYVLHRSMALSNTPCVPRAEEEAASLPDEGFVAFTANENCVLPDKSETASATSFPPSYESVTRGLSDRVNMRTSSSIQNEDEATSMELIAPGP

SMILES	IC50 [1] [µM]	IC50 [2] [µM]
O=C(N/N=C/c1cncc(O)c1)c1cncc(-c2ccc(O)cc2)n1 [Compound 4, (E)-6-(4-hydroxyphenyl)-N′-((5-hydroxypyridine-3-yl)methylene)pyrazine-2-carbohydrazide]	> 1	> 1
COc1cc(/C=N/NC(=O)c2cncc(-c3ccc(OC)cc3O)n2)cc(OC)c1 [Compound 5, (E)-N′-(3,5-dimethoxybenzylidene)-6-(2-hydroxy-4-methoxyphenyl)pyrazine-2-carbohydrazide]	> 1	< 0.5
COc1ccc(-c2cnc(O)c(C(=O)N/N=C/c3cc(OC)cc(OC)c3)n2)cc1 [Compound 14, (E)-N′-(3,5-dimethoxybenzylidene)-3-hydroxy-6-(4-methoxyphenyl)pyrazine-2-carbohydrazide]	> 1	> 1
CCOc1ccc(-c2cncc(C(=O)N/N=C/c3cc(OC)cnc3F)n2)c(O)c1 [Compound 9, (E)-6-(4-ethoxy-2-hydroxyphenyl)-N′-((2-fluoro-5-methoxypyridine-3-yl)methylene)pyrazine-2-carbohydrazide]	> 1	< 0.5
COc1ccc(-c2cncc(C(=O)N/N=C/c3ccccc3O)n2)cc1 [Compound 24, (E)-N′-(2-hydroxybenzylidene)-6-(4-methoxyphenyl)pyrazine-2-carbohydrazide]	> 1	> 1
COc1ccc(F)c(/C=N/NC(=O)c2cncc(-c3ccc(O)cc3)n2)c1 [Compound 3, (E)-N′-(2-fluoro-5-methoxybenzylidene)-6-(4-hydroxyphenyl)pyrazine-2-carbohydrazide]	> 1	> 1
COc1ccc(-c2cncc(C(=O)N/N=C/c3cccc(O)c3)n2)cc1 [Compound 23, (E)-N′-(3-hydroxybenzylidene)-6-(4-methoxyphenyl)pyrazine-2-carbohydrazide]	> 1	> 1
Cc1cc(C)cc(/C=N/NC(=O)c2cncc(-c3ccc(O)cc3)n2)c1 [Compound 2, (E)-N′-(3,5-dimethylbenzylidene)-6-(4-hydroxyphenyl)pyrazine-2-carbohydrazide]	> 1	> 1
COc1ccc(-c2cncc(C(=O)N/N=C/c3cc(C)cc(C)c3)n2)c(O)c1 [Compound 7, (E)-N′-(3,5-dimethylbenzylidene)-6-(2-hydroxy-4-methoxyphenyl)pyrazine-2-carbohydrazide]	> 1	< 0.5
CCOc1ccc(-c2cncc(C(=O)N/N=C/c3cc(C)cc(O)c3)n2)cc1 [Compound 26, (E)-6-(4-ethoxyphenyl)-N′-(3-hydroxy-5-methylbenzylidene)pyrazine-2-carbohydrazide]	> 1	< 0.5
COc1cc(/C=N/NC(=O)c2cncc(-c3ccc(OC)c(O)c3)n2)cc(OC)c1 [Compound 6, (E)-N′-(3,5-dimethoxybenzylidene)-6-(3-hydroxy-4-methoxyphenyl)pyrazine-2-carbohydrazide]	> 1	> 1
COc1cc(/C=N/NC(=O)c2cncc(-c3ccc(O)cc3)n2)cc(OC)c1 [Compound 1, (E)-N′-(3,5-dimethoxybenzylidene)-6-(4-hydroxyphenyl)pyrazine-2-carbohydrazide]	> 1	> 1
COc1ccc(-c2cncc(C(=O)N/N=C/c3cc(O)cc(OC)c3)n2)cc1 [Compound 21, (E)-N′-(3-hydroxy-5-methoxybenzylidene)-6-(4-methoxyphenyl)pyrazine-2-carbohydrazide]	> 1	> 1
COc1ccc(-c2cnc(O)c(C(=O)N/N=C/c3cc(C)cc(C)c3)n2)cc1 [Compound 15, (E)-N′-(3,5-dimethylbenzylidene)-3-hydroxy-6-(4-methoxyphenyl)pyrazine-2-carbohydrazide]	> 1	> 1
COc1ccc(-c2cncc(C(=O)N/N=C/c3cc(C)cc(O)c3)n2)cc1 [Compound 25, (E)-N′-(3-hydroxy-5-methylbenzylidene)-6-(4-methoxyphenyl)pyrazine-2-carbohydrazide]	> 1	0.5 to 1
CCOc1ccc(-c2nc(C(=O)N/N=C/c3cc(OC)cnc3F)cnc2O)cc1 [Compound 16, (E)-6-(4-ethoxyphenyl)-N′-((2-fluoro-5-methoxypyridine-3-yl)methylene)-5-hydroxypyrazine-2-carbohydrazide]	> 1	> 1
COc1ccc(-c2cncc(C(=O)N/N=C/c3ccc(O)cc3)n2)cc1 [Compound 22, (E)-N′-(4-hydroxybenzylidene)-6-(4-methoxyphenyl)pyrazine-2-carbohydrazide]	> 1	> 1

The remaining lines, values ahead:

IC50 [1] [µM]	IC50 [2] [µM]	SMILES
> 1	> 1	CCOc1ccc(-c2nc(C(=O)N/N=C/c3cccc(OC)c3)cnc2O)c(F)c1 [Compound 18, (E)-6-(4-ethoxy-2-fluorophenyl)-5-hydroxy-N′-(3-methoxybenzylidene)pyrazine-2-carbohydrazide]
> 1	> 1	COc1ccc(-c2nc(C(=O)N/N=C/c3cc(OC)cc(OC)c3)cnc2O)cc1 [Compound 12, (E)-N′-(3,5-dimethoxybenzylidene)-5-hydroxy-6-(4-methoxyphenyl)pyrazine-2-carbohydrazide]
> 1	> 1	COc1ccc(-c2cncc(C(=O)N/N=C/c3cc(O)cc(O)c3)n2)cc1 [Compound 20, (E)-N′-(3,5-dihydroxybenzylidene)-6-(4-methoxyphenyl)pyrazine-2-carbohydrazide]
> 1	0.5 to 1	CCOc1ccc(-c2cncc(C(=O)N/N=C/c3cc(O)ccc3F)n2)cc1 [Compound 27, (E)-6-(4-ethoxyphenyl)-N′-(2-fluoro-5-hydroxybenzylidene)pyrazine-2-carbohydrazide]
> 1	< 0.5	CCOc1ccc(-c2cncc(C(=O)N/N=C/c3cc(OC)ccc3O)n2)cc1 [Compound 28, (E)-6-(4-ethoxyphenyl)-N′-(2-hydroxy-5-methoxybenzylidene)pyrazine-2-carbohydrazide]
> 1	> 1	COc1ccc(-c2nc(C(=O)N/N=C/c3cc(C)cc(C)c3)cnc2O)cc1 [Compound 13, (E)-N′-(3,5-dimethylbenzylidene)-5-hydroxy-6-(4-methoxyphenyl)pyrazine-2-carbohydrazide]
> 1	> 1	CCOc1ccc(-c2cncc(C(=O)N/N=C/c3cncc(O)c3)n2)cc1 [Compound 29, (E)-6-(4-ethoxyphenyl)-N′-((5-hydroxypyridine-3-yl)methylene)pyrazine-2-carbohydrazide]
> 1	0.5 to 1	CCOc1ccc(-c2cncc(C(=O)N/N=C/c3cc(OC)ccc3F)n2)c(O)c1 [Compound 8, (E)-6-(4-ethoxy-2-hydroxyphenyl)-N′-(2-fluoro-5-methoxybenzylidene)pyrazine-2-carbohydrazide]
> 1	> 1	CCOc1ccc(-c2cnc(O)c(C(=O)N/N=C/c3cccc(OC)c3)n2)c(F)c1 [Compound 19, (E)-6-(4-ethoxy-2-fluorophenyl)-3-hydroxy-N′-(3-methoxybenzylidene)pyrazine-2-carbohydrazide]
